In the Kinase Knowledgebase extract (Sharma et al. 2016) one finds DNA synthesis data, which are given here for 1 compound.

This assay addresses EGFR (Wistar rat) (UniProt P00533). The settings on record: hepatocyte, dose or concentration not given here.

Chain of EGFR (Wistar rat) (P00533 whole entry, looked up): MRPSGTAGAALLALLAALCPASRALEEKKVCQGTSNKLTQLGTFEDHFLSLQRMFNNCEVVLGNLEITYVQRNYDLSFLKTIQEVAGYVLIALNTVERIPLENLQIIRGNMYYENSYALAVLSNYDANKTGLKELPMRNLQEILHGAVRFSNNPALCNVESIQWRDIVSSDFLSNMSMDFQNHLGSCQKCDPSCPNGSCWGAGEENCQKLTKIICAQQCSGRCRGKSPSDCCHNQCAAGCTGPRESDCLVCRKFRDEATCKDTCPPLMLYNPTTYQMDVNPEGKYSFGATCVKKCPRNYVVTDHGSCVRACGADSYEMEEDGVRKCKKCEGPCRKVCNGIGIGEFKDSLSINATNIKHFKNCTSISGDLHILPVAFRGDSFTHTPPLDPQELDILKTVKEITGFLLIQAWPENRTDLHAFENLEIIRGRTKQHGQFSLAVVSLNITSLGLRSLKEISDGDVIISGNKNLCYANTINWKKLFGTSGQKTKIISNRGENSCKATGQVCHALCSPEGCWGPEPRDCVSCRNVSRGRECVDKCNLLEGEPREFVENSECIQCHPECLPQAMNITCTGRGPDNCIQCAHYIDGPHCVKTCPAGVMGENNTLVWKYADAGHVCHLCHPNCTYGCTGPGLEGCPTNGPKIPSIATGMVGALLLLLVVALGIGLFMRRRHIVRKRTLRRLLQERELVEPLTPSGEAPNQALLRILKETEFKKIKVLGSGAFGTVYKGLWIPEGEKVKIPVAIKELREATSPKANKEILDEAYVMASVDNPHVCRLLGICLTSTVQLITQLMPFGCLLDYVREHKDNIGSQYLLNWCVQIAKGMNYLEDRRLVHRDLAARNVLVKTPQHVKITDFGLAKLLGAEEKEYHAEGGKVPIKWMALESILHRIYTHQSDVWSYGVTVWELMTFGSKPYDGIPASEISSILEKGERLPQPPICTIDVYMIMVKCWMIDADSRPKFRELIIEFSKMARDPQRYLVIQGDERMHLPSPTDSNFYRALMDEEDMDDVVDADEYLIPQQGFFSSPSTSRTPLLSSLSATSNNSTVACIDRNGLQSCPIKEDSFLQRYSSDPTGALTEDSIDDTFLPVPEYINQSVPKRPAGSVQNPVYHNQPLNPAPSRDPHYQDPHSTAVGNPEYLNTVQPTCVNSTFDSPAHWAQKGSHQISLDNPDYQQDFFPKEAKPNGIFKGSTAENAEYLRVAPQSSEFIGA

For `COc1cccc(-c2cc(=O)c3ccccc3o2)c1N`, the DNA synthesis amounted to 16%.
